Values quoted from earlier work as cited in US11707464B2, “Methods of treating heavy menstrual bleeding” (AbbVie Inc., priority 2013, dated 2023).

Test system: women with symptomatic uterine fibroids
Settings: 185 women with HMB associated with uterine fibroids; through 6 months; cited from earlier work

SMILES: CCNC(=O)[C@@H]1CCCN1C(=O)[C@H](CCCN=C(N)N)NC(=O)[C@H](CC(C)C)NC(=O)[C@@H](Cc1c[nH]c2ccccc12)NC(=O)[C@H](Cc1ccc(O)cc1)NC(=O)[C@H](CO)NC(=O)[C@H](Cc1c[nH]c2ccccc12)NC(=O)[C@H](Cc1cnc[nH]1)NC(=O)[C@@H]1CCC(=O)N1 [deslorelin]
- efficacy (reduction in uterine bleeding and volume) when dosed with low-dose transdermal E2: maintained
